Results reported in patent publication US20240058340A1, “COMPOSITIONS AND METHODS FOR TREATING CANCER” (The Regents of the University of California, priority 2020, published 2024).

Columns and labels:
[1] = Brain penetration in non-tumor bearing mice; type: in vivo; conditions: for Brain Penetration (% of plasma): brain to plasma percentage; for Kpuu (Avg): unbound ratio of drug in brain to plasma
Source text: Disclosed in table 5 Brain to plasma percentages and unbound ratios of drugs in brain to plasma of indicated drugs in non-tumor bearing mice

[2] = test system: PC-9 (EGFR exon 19 deletion); assay: Cellular IC50, Cell Titer Glo, PC-9 cell line; type: cell-based; conditions: Homo sapiens, PC-9 cells, 72 hours
Experimental: (§1) The PC-9 cell line was purchased from Sigma, and the HCC827 cell line was purchased from ATCC. Each cell line was maintained at ≤passage 10 at 37° C. in a humidified incubator with 5% CO2. Cells were plated in 96-well optical bottom plates (Corning #3903; Corning, NY) at a cell density of 5,000 cells/well, allowed to adhere for minimally 16 hours, and subsequently treated with the test compounds using an 11-point serial dilution (1:3) in duplicate using an HP D300 digital 4 dispenser (Tecan, Morrisville, NC). 72 hours after addition of the test compounds, Cell Titer Glo reagent (Promega, Madison, WI) was added to the plate according to manufacturer's protocol and luminescence measured using a Spectramax M5 (Molecular Devices, San Jose, CA). IC50s were calculated using the 4-parameter variable slope curve fit using the equation below where, Y and X are variables plotted, Top and Bottom are plateaus in the units of the Y axis, LogIC50 is the Log transformation of the IC50 value and HillSlope is the Hill Slope for the curve and describes curve steepness (GraphPad Prism, version 6.07, GraphPad Software, Inc.). Y=Bottom+(Top−Bottom)/(1+10((LogIC50−X)*HillSlope))).

[3] = test system: HCC827 (EGFR exon 19 deletion); assay: Cellular IC50, Cell Titer Glo, HCC827 cell line; type: cell-based; conditions: Homo sapiens, HCC827 cells, 72 hours
Experimental: as §1

Compound | Brain Penetration (% of plasma) [1] | Kpuu (Avg) [1] | IC50 [2] [nM] | IC50 [3] [nM]
CN1CCC12CN(C[C@H]1COc3cc4ncnc(Nc5cccc(Br)c5F)c4cc3O1)C2 | – | – | 9.4 | 7
CN1CCN(C[C@H]2COc3cc4ncnc(Nc5cccc(Br)c5F)c4cc3O2)CC(F)(F)C1 | – | – | 140 | 50.6
CN1CCC2CN(C[C@H]3COc4cc5ncnc(Nc6cccc(Br)c6F)c5cc4O3)CC21 (stereo partly shown) | – | – | 12.9 | 5.9
CN1CCN(C[C@H]2COc3cc4ncnc(Nc5cccc(Br)c5F)c4cc3O2)CCC1C(F)(F)F (stereo partly shown) | – | – | 54 | 36.9
CN1CC2(C1)CN(C[C@H]1COc3cc4ncnc(Nc5cccc(Br)c5F)c4cc3O1)C2 | – | – | 10.1 | 5.9
CN1CC2CN(C[C@H]3COc4cc5ncnc(Nc6cccc(Br)c6F)c5cc4O3)CC2C1 (stereo partly shown) | – | – | 21.7 | 14.3

Results, then the molecule that gave them:

Brain Penetration (% of plasma) [1] | Kpuu (Avg) [1] | IC50 [2] [nM] | IC50 [3] [nM] | Compound
106.2 % of plasma | 1.037 | – | – | Fc1cccc(Nc2ncnc3cc4c(cc23)OCCO4)c1F [JGK028]
84.3 % of plasma | 0.575 | – | – | C#Cc1cccc(Nc2ncnc3cc4c(cc23)OCCO4)c1F [JGK038]
106.4 % of plasma | 1.045 | – | – | Fc1c(Cl)cccc1Nc1ncnc2cc3c(cc12)OCCO3 [JGK010]
167.6 % of plasma | 1.033 | – | – | Fc1c(I)cccc1Nc1ncnc2cc3c(cc12)OCCO3 [JGK042]
64.8 % of plasma | 0.491 | – | – | C#Cc1cccc(Nc2ncnc3cc4c(cc23)OCCO4)c1 [JGK005]
